Read-outs that look alike come from different tables or passages of the source.
Target: T1, human HCN1 (Homo sapiens, UniProt O60741)
T1 construct: expressed in transfected cells; host or cells: HEK-293H
T1 sequence (O60741 1-890): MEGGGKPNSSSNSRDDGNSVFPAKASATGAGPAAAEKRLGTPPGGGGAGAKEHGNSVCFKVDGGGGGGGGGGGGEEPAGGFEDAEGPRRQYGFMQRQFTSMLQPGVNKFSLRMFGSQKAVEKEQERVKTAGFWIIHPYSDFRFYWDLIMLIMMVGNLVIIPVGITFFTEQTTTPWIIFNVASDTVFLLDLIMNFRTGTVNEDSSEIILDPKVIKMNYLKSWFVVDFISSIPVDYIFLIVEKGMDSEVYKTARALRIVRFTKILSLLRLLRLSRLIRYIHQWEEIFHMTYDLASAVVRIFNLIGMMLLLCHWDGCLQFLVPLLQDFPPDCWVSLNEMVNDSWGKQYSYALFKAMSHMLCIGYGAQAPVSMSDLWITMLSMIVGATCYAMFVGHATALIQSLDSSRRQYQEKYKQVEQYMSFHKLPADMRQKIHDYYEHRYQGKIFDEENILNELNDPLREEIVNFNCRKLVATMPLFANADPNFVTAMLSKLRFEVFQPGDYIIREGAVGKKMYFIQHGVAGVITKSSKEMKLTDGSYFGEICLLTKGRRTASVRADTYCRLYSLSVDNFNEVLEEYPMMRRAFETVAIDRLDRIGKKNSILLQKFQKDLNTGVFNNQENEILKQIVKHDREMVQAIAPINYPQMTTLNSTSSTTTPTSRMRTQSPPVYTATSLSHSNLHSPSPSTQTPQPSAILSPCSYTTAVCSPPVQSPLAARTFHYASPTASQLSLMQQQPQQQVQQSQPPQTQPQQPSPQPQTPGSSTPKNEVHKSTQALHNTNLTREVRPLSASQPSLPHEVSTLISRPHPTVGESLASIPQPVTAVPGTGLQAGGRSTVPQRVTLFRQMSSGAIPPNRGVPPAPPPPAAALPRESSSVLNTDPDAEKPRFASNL
Experiment: Dose response of blockade of hyperpolarization (MPSD FLIPR), HCN1
Format: cell-based
Conditions: HEK-293 clone
Procedure: HEK-293H cells stably expressing a human HCN1 channel were plated and incubated in HBSS essentially as described in Examples 3 and 5. CHO-K1 cells stably expressing a human HCN4 channel were plated and incubated in HBSS essentially as described in Example 6. Varying concentrations of ZD7288 were added to HBSS for each of the test wells to determine the dose response of cells expressing HCN1 or HCN4 channels. The percent inhibition of hyperpolarization was calculated for a single dose using the following equation:
The data were fit with a Hill equation as described by the ratio 1/(1+([test agent]/IC50)^k, where IC50 is the concentration of a test agent required to inhibit one-half of the maximum current and k is the Hill coefficient.
FIG. 10A depicts a typical dose response curve for a single HEK-293H HCN1 channel expressing clone in the presence of ZD7288. […] No statistical difference was found between the two means.

Question: What does the source list for CCN(c1ccccc1)c1cc(=NC)n(C)c(C)n1.Cl [ZD7288]?
Answer: IC50 (group 1, n=8, mean ± 0.2 μM, read-out: IC50 mean, group 1): 2100 nM; IC50 (group 2, n=12, mean ± 0.8 μM, read-out: IC50 mean, group 2): 2900 nM

From patent publication US20090029366A1 (priority 2007, published 2009)
